# In patent publication US20240408064A1, “RAS INHIBITORS, COMPOSITIONS AND METHODS OF USE THEREOF” (GENETOLEAD INC., priority 2021, published 2024):
# pKd: −log10 of the molar value. Like-named read-outs stand apart in the source and are kept apart here.
# Experiments:
# HRas^G12V [1] = target: T1, HRas^G12V (Homo sapiens (Human), UniProt P01112, G12V); experiment: 19F DLB (ligand-observed 19F NMR) score; format: binding; set-up: scale not given here
# Method in brief: (§1)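 In the T2-CPMG experiment, echo spacing was 1 ms and total delays ranged over eight values from 1 to 800 ms. Both scores come from 600 MHz NMR of 50 μM HRas G12V mixed with fragment pools at 240 μM each, in phosphate buffer pH 7.4 with NaCl, MgCl2 and TCEP-d16. Ligand-observed 19F spectra were recorded with 1H decoupling, 64 scans and a 5 s relaxation delay.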
# HRas^G12V [2] = target: T1, HRas^G12V; experiment: 19F T2-CPMG NMR score; format: binding
# Method in brief: as §1
# HRas^G12V [3] = target: T1, HRas^G12V; experiment: Dissociation constant by NMR (1H/15N Fast-HSQC, 1H 1D protein-observed); format: binding
# Method: All NMR experiments were collected using 3 mm NMR tubes on a 600 MHz Bruker Avance III spectrometer equipped with a QCI helium cryoprobe and a SampleJet sample changer. The buffer used for NMR experiments was 25 mM sodium phosphate pH 7.4, 150 mM NaCl, 5 mM MgCl2, 1 mM TCEP-d16, 10% D2O. Data were processed using Bruker TopSpin.
# ^1H/^15N Fast-HSQC experiments (Mori et al., Journal of Magnetic Resonance, Series B, Volume 108, Issue 1, July 1995, Pages 94-98) were recorded at a protein concentration of 50-100 μM.
# Dissociation constants were obtained by monitoring changes in chemical shifts as a function of ligand concentration. The changes in chemical shifts (d) were calculated according to the following equation (Williamson, Progress in Nuclear Magnetic Resonance Spectroscopy, Volume 73, August 2013, Pages 1-16): d=√(1/2[δ_H^2+[…]]), Where δ are the changes in chemical shift in ppm for ^1H and ^15N and the correction factor (α) was set at 0.15.
# ^1H 1D protein-observed experiments were recorded with 15-50 μM protein. The standard Bruker 1D ^1H sequence with excitation sculpting (zgesgp) was employed. A relaxation delay of 1 s was employed in order to use 256 scans while still keeping experimental time fairly short. Changes in protein chemical shift or peak intensity in the methyl region were monitored against compound concentration.
# KRAS^G12D-GDP [4] = target: T2, KRAS^G12D-GDP (Homo sapiens (Human), UniProt P01116, G12D); experiment: 19F DLB score, KRAS^G12D-GDP; format: binding; set-up: scale not given here
# Method: (§2) Since the fragment library was curated using phosphate buffer, 25 mM sodium phosphate pH 7.4, 150 mM NaCl, 5 mM MgCl2, 1 mM TCEP-d16, 10% D2O Fresh TCEP was used for experiments. Screening was performed using ^1H-decoupled 1D ^19F experiment Bruker experiment (zgfhigqn.2) with 64 scans and a relaxation delay of 5 seconds. 50 μM HRas^G12V and 240 μM of each fragment in pools (mixtures) were used.
# (§3) Hit confirmation was performed using the same ^19F experiment as the screen. Ligand-observed 1D ^1H, protein-observed 1D ^1H, ^1H T2-CPMG as well as Saturation Transfer Difference (STD) experiments were also run on the same samples. Ligand-observed 1D ^1H was run using the standard Bruker sequence with excitation sculpting (zgesgp) with a relaxation delay of 10 seconds and 16 scans per spectrum. Protein-observed 1D ^1H was performed using the same sequence with a relaxation delay of 1 second and 256 scans in order to increase the signal-to-noise of the protein resonances, while keeping the experimental time relatively short. The ^1H T2-CPMG experiment employed a modified version of the Bruker 1D ^1H zgesgp experiment with the addition of a CPMG pulse train after the first 90° excitation pulse. Total duration for each spin echo was fixed at 1 ms (τ=500 μs), while the number of echoes in the pulse train was varied according to the total time (T). The number of scans for each spectrum was 4 and eight delay times were run on each sample, ranging from 1 ms to 800 ms.
# (§4) The activity of compounds of the invention regarding KRAS^G12D-GDP was measured in the same as in Example 80. The results obtained with the compounds in the various assays described above are depicted in Table 23.
# KRAS^G12D-GDP [5] = target: T2, KRAS^G12D-GDP; experiment: 19F T2-CPMG score, KRAS^G12D-GDP; format: binding
# Method: as §2, §3, §4
# HRas^G12V [6] = target: T1, HRas^G12V; experiment: Overall binding/activity in the various assays (NMR consensus binding)
# Method in brief: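 Fragments (240 µM each, pooled) screened against 50 µM HRas^G12V in 25 mM sodium phosphate pH 7.4, 150 mM NaCl, 5 mM MgCl2, 1 mM TCEP-d16 by 1H-decoupled 1D 19F NMR. Hits confirmed by ligand- and protein-observed 1D 1H, STD and T2-CPMG (aggregation check); consensus binding ranked, with 15N HSQC for sites and Kd.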
# [7] = Solubility and free-state aggregation in the NMR screen; format: physicochemical; settings: NMR buffer
# Source text: Fragment screening has been performed using a library containing 461 fragments that has been designed using cheminformatics parameters such as Rule of Three and PAINS analysis. All fragments have been curated by ^1H and ^19F NMR for structure verification, purity, solubility in phosphate buffer and lack of apparent aggregation under these conditions. Fragments were pooled according to chemical compatibility resulting in 31 different pools to increase screening throughput. The library was provided by NMX Research in Solutions Inc.
# Because of its power to probe the intrinsically weak interactions (Kd) between targets and low-molecular weight fragments, NMR fragment-based lead discovery (FBLD) is a very useful biophysical method in early stage drug discovery, especially for challenging target proteins; including those with shallow binding pockets. Since FBLD screens are performed using low-molecular weight compounds (fragments) with lower structural complexity, the same chemical space can be covered using a smaller number of drug-like fragments versus use of large libraries of higher-molecular weight lead-like compounds as in high throughput screening (HTS) campaigns. Therefore, FBLD has a much higher hit rate than HTS using only several hundred to several thousand compounds in comparison with approximately 1 million compounds for HTS. Also, the small size of the compounds screened in FBLD means a better chance to fully match the interactions with small or transient pockets within the target protein, where these less tractable pockets cannot be accessed with standard classical HTS methods. […] We expect this methodology to be more advantageous than classical HTS methods for expediting the time from hit to lead (H2L) and allows for rapid access to high quality leads with lower attrition rates in subsequent lead optimization (LO) campaigns toward pre-clinical candidate selection. FBLD screening by NMR involves a “consensus binding” approach where several distinct NMR experiments (DLB, STD, CPMG) are applied along with a free-state aggregation detection method (T2-CPMG) to rank the compounds for their affinity to the receptor (HRAS in this case) whilst simultaneously monitoring the solution behavior and critical quality attributes of each compound. The latter helps to eliminate artifact binders which are highly problematic. We performed a fluorine screen involving 461 compounds that were derived from a highly curated fragment library. Moreover, two-dimensional ^15N HSQC NMR was also used to validate ligand-binding sites on the target protein. In addition, we employed protein-detected biophysical measurements were employed to determine fragment binding affinities to the target protein (Kd) by HSQC NMR. From the results, we picked the most interesting hit were picked, FS-1255 that was identified based on consensus binding evidence from all NMR detection methods, and based the lack of free-state aggregation by T2-CPMG. We chose to prioritize on FS-1255 which was the most promising fragment hit.
# T2 sequence (P01116-2 other isoform, or with tags, fused parts or gaps G12D): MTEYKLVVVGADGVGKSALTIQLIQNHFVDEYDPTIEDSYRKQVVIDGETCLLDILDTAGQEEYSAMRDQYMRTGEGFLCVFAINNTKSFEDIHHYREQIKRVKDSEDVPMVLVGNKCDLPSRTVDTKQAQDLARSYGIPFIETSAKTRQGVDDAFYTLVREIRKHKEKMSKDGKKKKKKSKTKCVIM
SMILES,19F DLB Score (HRas^G12V [1]; @ 50 uM),19F T2-CPMG Score (HRas^G12V [2]),"pKd (HRas^G12V [3]; HRas^G12V, read-out: NMR Kd)",19F DLB Score (KRAS^G12D-GDP [4]),19F T2-CPMG Score (KRAS^G12D-GDP [5]),19F DLB Score (HRas^G12V [1]),Activity ranking on HRas^G12V (in words) (HRas^G12V [6]),Binding to HRas^G12V (in words) (HRas^G12V [6]),Solution behaviour in the NMR screen [7],pKd (HRas^G12V [3])
"CN(C)S(=O)(=O)NCCc1c[nH]c2cc(F)ccc12 [Compound 10004, reference compound]",5.34 @ 50 uM,19.49,2.19 to 2.21,2.06,9.41,–,–,–,–,–
"CS(=O)(=O)NCCc1c[nH]c2cc(F)ccc12 [Compound 10006, reference compound]",–,19.5,2.00,–,–,3.24,–,–,–,–
CC(=O)Nc1cccc(NC(=O)Cc2c[nH]c3cc(F)ccc23)c1 [Compound 10014],–,38.3,2.63,2.46,>LOQ,3.12,More active,–,–,–
"O=C(Cc1c[nH]c2cc(F)ccc12)Nc1ccccc1 [Compound 10021, 2-(6-fluoro-1H-indol-3-yl)-N-phenyl acetamide]",8.73 @ 50 uM,38.83,–,2.62,>LOQ,–,–,–,–,–
COCCNC(=O)Cc1c[nH]c2cc(F)ccc12 [Compound 10025],–,1.68,2.22,–,–,1.22,–,low or no binding,–,–
CC(CCO)NC(=O)Cc1c[nH]c2cc(F)ccc12 (stereo not drawn) [Compound 10026],–,3.17,2.00,–,–,1.23,–,low or no binding,–,–
O=C(Cc1c[nH]c2cc(F)ccc12)NC1CCOCC1 [Compound 10027],–,3.77,2.13,–,–,1.42,–,low or no binding,–,–
"O=C(Cc1c[nH]c2ncc(F)cc12)N1CCC1 [Compound 10035, 1-(azetidin-1-yl)-2-(5-fluoro-1H-pyrrolo[2,3-b]pyridin-3-yl)ethan-1-one]",–,−0.11,< 2.00,–,–,0.91,More active,–,–,–
CC(=O)N[C@H]1CCN(C(=O)Cc2c[nH]c3cc(F)ccc23)C1 [Compound 10041],–,3.92,2.05 to 2.28,–,–,1.86,–,–,–,–
COc1cc(Cl)ccc1NC(=O)Cc1c[nH]c2cc(F)ccc12 [Compound 10051],–,–,–,–,–,–,–,low or no binding,Not soluble,–
O=C(Cc1c[nH]c2cc(F)ccc12)N1CCCCC1 [Compound 10053],–,39.43,2.82,4.89,>LOQ,5.85,More active,–,–,–
N#Cc1ccc(NC(=O)Cc2c[nH]c3cc(F)ccc23)cc1 [Compound 10054],–,–,–,–,–,–,–,low or no binding,Not soluble,–
"CC(C(=O)N1CCC1)c1c[nH]c2cc(F)ccc12 (stereo not drawn) [Compound 10066, 1-(azetidin-1-yl)-2-(6-fluoro-1H-indol-3-yl) propan-1-one]",–,21.34,2.40 to 2.46,2.22,9.14,2.94,More active,–,–,–
O=C1CCN(C(=O)Cc2c[nH]c3cc(F)ccc23)CC1 [Compound 10106],–,13.41,–,–,–,2.25,–,–,–,2.19
"NC(=O)C1CN(C(=O)Cc2c[nH]c3cc(F)ccc23)C1 [Compound 10114, 1-(2-(6-fluoro-1H-indol-3-yl)acetyl)azetidine-3-carboxamide]",–,15.2,1.96,–,–,2.14,–,–,–,–
CN(C)C[C@@H]1CN(C(=O)Cc2c[nH]c3cc(F)ccc23)CCO1 [Compound 10159],–,19.26,2.47 to 2.53,–,–,3.93,More active,–,–,–
"CN(C)C[C@H]1CN(C(=O)Cc2c[nH]c3cc(F)ccc23)CCO1 [Compound 10160, (S)-1-(2-((dimethylamino)methyl)morpholino)-2-(6-fluoro-1H-indol-3-yl) ethan-1-one]",–,–,2.89,–,–,6.24,–,–,–,–
"CCOC(=O)Cc1c[nH]c2cc(F)ccc12 [Compound 11003, ethyl 2-(6-fluoro-1H-indol-3-yl) acetate]",–,11.18,–,2.20,14.19,2.23,–,–,–,–
